Patent US9957236B2, “Selective inhibitors interfering with fibroblast growth factor receptor and FRS2 interaction for the prevention and treatment of cancer and other diseases” (LIMITED LIABILITY COMPANY “RUSSIAN PHARMACEUTICAL …, priority 2014, dated 2018)

Tests used:
[1] = target: T1, FGFR2-Fc (Homo sapiens, UniProt P21802); experiment: Enzyme linked FGF2 binding assay with FGFR2-Fc; details: concentrations of 1 to 1000 nM, FGF-2 + heparin
T1 construct: consisted of human extracellular domain FGFR2α (Inc) and Fc-fragment of human IgG1
T1 sequence (P21802 22-377 limits assumed): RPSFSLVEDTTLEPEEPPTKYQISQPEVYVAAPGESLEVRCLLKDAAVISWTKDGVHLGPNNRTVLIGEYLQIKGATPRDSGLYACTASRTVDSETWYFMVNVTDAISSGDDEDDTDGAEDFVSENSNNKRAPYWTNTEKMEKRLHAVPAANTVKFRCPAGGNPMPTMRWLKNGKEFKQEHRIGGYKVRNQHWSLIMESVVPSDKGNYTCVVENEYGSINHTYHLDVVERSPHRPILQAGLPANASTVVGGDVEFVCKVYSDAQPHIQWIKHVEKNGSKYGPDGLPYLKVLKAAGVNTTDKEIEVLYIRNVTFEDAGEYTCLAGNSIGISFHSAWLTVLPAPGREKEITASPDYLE
Method: Non-radioactive enzyme linked FGF2 binding assay was performed in order to assess if RPT835 influences on binding of FGFR2 and ligand (FGF-2). Recombinant chimeric protein FGFR2-Fc, which consisted of human extracellular domain FGFR2α (Inc) and Fc-fragment of human IgG1 was used in the binding assay of FGF-2. FGFR2α contained all the 3 immunoglobulin-like domains and represented domain IIIc FGFR2 with high affinity to FGF-2. A 96-cavity plate tablet was covered with FGFR2-Fc protein, and then the following was added into the cavities:
3) inhibitor RPT835 in various concentrations+FGF-2+heparin
4) a part of the cavities remained without stimulators (FGF-2+heparin) and RPT835 (negative control).
After incubation, enzyme-linked immunoassay was carried out using the corresponding antibodies and subsequent determination of OD650 (optic density with wavelength of 650 nm).

[2] = system: anti-FGF-2 antibody; experiment: Enzyme-linked immune assay, FGF-2 binding to immobilized anti-FGF-2 antibody; details: concentration of 1 to 1,000 nM
Method: The next task was to assess influence of inhibitor RPT835 on binding of FGF-2 and FGFR2-Fc. […] In order to exclude unspecific effect of RPT835 on binding, one more enzyme-linked immune assay was carried out, in which the cavities were covered with immobilized anti-FGF-2 antibody. FGF-2±RPT835 in different concentrations is added to the cavities.

[3] = system: intracellular kinases; experiment: Intracellular kinases phosphorylation in breast cancer cells MDA MB 134; format: cell-based; details: MDA MB 134 cells
Text: The purpose of this research was assessment of specific action of inhibitor RPT835 specified in this invention with formula II, on interaction of […] and FRS2 and assessment of influence on interaction of other types of FGFR and FRS2. For the experiment, 2 cell lines were selected: • stomach cancer KATO III, expressing FGFR2, and • breast cancer MDA MB 134, expressing FGFR1.
The research procedure was the same as in the previous examples: the cells were cultivated in presence of RPT835 followed by stimulation with FGF-2 and heparin. The other part of the cells was cultivated in presence of RPT835. Phosphorylation of FGFR1 (in breast cancer cells) and FGFR2 (in stomach cancer cells), and also FRS2a (in the both cell lines) and some intracellular kinases (in breast cancer cells) was assessed using manual and automated Western blotting.

[4] = system: HUVEC; experiment: Proliferation of endothelial cells HUVEC with FGF-2; format: cell-based; details: Homo sapiens, FGF-2 25 ng/ml, 96 hours, read-out: Cell growth suppression, IC50
Method: Endothelial cells HUVEC were sawn in 96-cavity plates and cultivate for 24 hours. After that, the following was added to the cells: • 1) inhibitor RPT835, or • 2) inhibitor described by Formula IX in this invention, or • 3) brivanib—multi-kinase inhibitor of FGFR/VEGFR, and also to all cells—FGF-2 in a concentration of 25 ng/ml.
The cells were cultivated for 96 hours in general and then were calculated.

[5] = system: T47D breast cancer cells; experiment: Crystal Violet proliferation assay, T47D; format: cell-based; details: hardly expressed FGFR2, bFGF 100 ng/ml, 7 days
Text: This research used additional cell lines: SKOV3 (ovarian cancer, ATCC # HTB-77), HS578T (breast cancer, ATCC # HTB-126), T47D (breast cancer, ATCC #HTB-1336), modified line of non-small cells lung cancer A549, line of metastatic melanoma of skin Mel Kor (RF Patent No. 2287578), and additional study of antiangiogenic activity—cell line SVEC-4-10 (endothelial cells, ATCC #CRL-2181).
The cells were cultivated in environment RPMI-1640 (PANECO) (SKOV3, HS578T, T47D, Mel-Kor) or DMEM (PANECO) (SVEC-4-10) containing 10% of embryonal serum cattle (FCS, HyClone), 2 mM glutamine (PANECO), antibiotics (100 IU/mL penicillin and […] streptomycin (all PANECO)) at 37° C. and 5% CO2. Cells at 70-80% monolayer were used for the experiments.
The cells were planted in low density (30 t of cells/ml) in triplets on a 96-cavity plate in an environment containing 0.1% of FCS serum. […] Growth of cells was determined by the modified “Crystal Violet mitogenic method” for 7 days after the experiment start. […] The dye was dissolved in ethanol and measured on a spectrophotometer at 540-560 nm. The curve of cell proliferative activity inhibition was built by the dependence of the percent of the cell quantity (Y axis) on concentration of inhibitor RPT835 in the cavity of the plate (X axis). […]

[6] = in vivo
Text: Besides, acute toxicity of inhibitor RPT835 was studied in the following volume in a separate research: • Acute toxicity of the medicine was researched. […] The state of the animals after acute administration testifies of good tolerability of the medicine in doses exceeding the maximal therapeutic ones (about 4.3 mcg/kg) tens—hundreds of times. […]

For `Cc1cc([N+](=O)[O-])c(NS(=O)(=O)c2cccc(C(=O)O)c2)cc1-c1cccnc1` [RPT835, 3-(N-(4-methyl-2-nitro-5-(pyridin-3-yl)phenyl)sulfamoyl)benzoic acid], the “binding of FGF-2 and FGFR2-Fc” value [1] was “did not influence on binding of ligand with the receptor”, the “binding of FGF-2 with anti-FGF-2 antibody” value [2] was “did not influence on binding of FGF-2 with anti-FGF-2 antibody” and the “phosphorylation of intracellular kinases” value [3] was “did not have influence”. The IC50 [4] was 11 nM, the “inhibition of proliferative activity” value [5] was “did not block” and the “irritating effect on the mucous membrane of the gastrointestinal tract” value [6] was “does not have an irritating effect”.
